Measurements taken from patent US20140073637A1, “AMINO-SUBSTITUTED-ALKYLOXY-BENZO[E]PYRIDO[4,3-B]INDOLE DERIVATIVES AS NEW POTENT KINASE INHIBITORS” (INSTITUT CURIE, priority 2011, published 2014).
Where two headings read alike, the source gives them in different places.

What was measured:
Aurora B = Aurora B (Homo sapiens, UniProt Q96GD4); test: Aurora B inhibition in cells: Histone H3 Ser10 phosphorylation by western blotting and immunofluorescence; type: cell-based; design: endogenous in cells; host or cells: U2OS (human osteosarcoma); HeLa also used for the maleate salts; key to Aurora B inhibition: +++: very efficient inhibition; −: no inhibition; settings: for Aurora B inhibition: cells, Histone H3 Ser10 phosphorylation, western blotting and immunofluorescence, compounds 1 μM; for Aurora B kinase inhibition of maleate salts (in words): U2OS and HeLa cells, 1 μM overnight with Nocodazole, immunoblotting (FIG. 11)
Method: Actin is used as control of quantity. Cells were incubated overnight in the presence of either C1, or C2 or CH21 or C14 or DMSO(C: control). All compounds were tested at 1 μM. Proteins were detected by western blotting.
Cells were incubated with the different molecules and Aurora B inhibition is estimated by western blotting (WB) and immuno fluorescent experiments. Histone H3 phosphorylated on Ser10 is used as a marker of Aurora B kinase activity and actin as an internal control. Each WB signal is compared to the control in the absence of compound. The efficiency estimated by WB is indicated by +++: very efficient inhibition to −: no inhibition. Immunofluorescent labelling of a mitotic cell by Histone H3 illustrates Aurora B kinase activity. However immunofluorescence is less sensitive than WB. Active molecules are underlined by a square and the intensity of the line indicates the efficiency of inhibition.
FIG. 10A: Immunofluorescence with phospho-Ser10-Histone H3 antibodies. Either the percentage of positive phospho-Ser10-Histone H3 is indicated or a representative mitosis shown. […] Immunofluorescent assays were realized with a specific phospho-antibody and mitotic U2OS cells are recognized by their DNA content stained with Hoechst. On the right, a representative cell or the percentage of H3-S10-P labelled mitosis.
(§1) FIG. 10B: Immunoblotting analysis of histone H3 phosphorylation. U2OS cells were incubated overnight with Nocodazole (50 nM) in the presence of either DMSO (Co) or Compounds (1 μM). Cells were then collected and lyzed. Identical amounts of the lyzed cell samples were run on 18% acrylamide gel containing SDS.
as §1, with “FIGS. 11B and 11C:” for “FIG. 10B:”, “U2OS and HeLa” for “U2OS”
Cells were incubated with the different molecules and Aurora B inhibition is estimated by western blotting and immunofluorescent experiments. Histone H3 phosphorylated on Ser10 is used as a marker of Aurora B kinase activity and actin as an internal control. Results are represented in FIGS. 4 and 10 and Table 3.
(§2) Cells were treated by compounds, harvested and lyzed in 9M urea then supplemented with Laemmli sample buffer. Cell extracts were subjected to SDS-PAGE and transferred to nitrocellulose filter (GE Healthcare). After blocking with 5% non-fat milk in PBS for at least 1 hour, the membranes were incubated with the primary antibodies. The following antibodies were used: phospho-Histone H3 Ser10 (1:2000, Upstate Biotechnology), anti LAST1 (Cell signalling), anti Aurora B (epitomics) and anti alpha-tubulin (Sigma) Anti-rabbit horseradish peroxidase (1:5000, GE Healthcare) was used as secondary antibodies. Bands were visualized by ECL technique (Amersham Bioscience).
Cells were seeded on glass coverslips and treated by compounds (1 μM) overnight. After treatment, cells were fixed in 4% formaldhehyde at 37° C. for 15 minutes, then permeabilized for 5 minutes with Triton X-100 in PBS.

NUAK1 [1] = target: T1, NUAK1 (Homo sapiens, UniProt O60285); test: Nuak1 inhibition in cellulo: LATS1 stabilization by western blot; type: cell-based; settings: HeLa cells treated ON; whole cell extracts, WB, compared to control
T1 construct: Reaction biology Corp (USA), service
T1 sequence (O60285 1-661): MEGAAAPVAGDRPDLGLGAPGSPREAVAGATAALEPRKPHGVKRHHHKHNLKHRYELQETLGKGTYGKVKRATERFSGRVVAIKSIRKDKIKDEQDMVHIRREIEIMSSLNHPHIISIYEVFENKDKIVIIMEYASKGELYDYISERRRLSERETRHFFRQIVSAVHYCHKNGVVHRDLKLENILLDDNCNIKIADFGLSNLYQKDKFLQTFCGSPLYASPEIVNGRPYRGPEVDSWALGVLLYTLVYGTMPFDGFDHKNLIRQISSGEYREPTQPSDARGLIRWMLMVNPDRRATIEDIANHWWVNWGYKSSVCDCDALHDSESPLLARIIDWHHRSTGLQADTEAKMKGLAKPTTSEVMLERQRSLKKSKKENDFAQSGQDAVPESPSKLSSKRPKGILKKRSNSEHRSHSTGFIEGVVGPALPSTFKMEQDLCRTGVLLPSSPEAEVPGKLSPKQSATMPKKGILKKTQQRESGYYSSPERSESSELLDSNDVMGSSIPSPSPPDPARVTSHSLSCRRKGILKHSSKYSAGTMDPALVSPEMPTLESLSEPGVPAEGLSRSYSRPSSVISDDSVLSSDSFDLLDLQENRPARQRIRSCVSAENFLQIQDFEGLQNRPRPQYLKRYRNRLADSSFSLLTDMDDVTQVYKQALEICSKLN
Method: HeLa cells were treated ON by C21 (also named CH21) and C14M and compared to the control (C0). Whole cell extracts were analyzed by WB with anti LATS1 monoclonal antibody and the loading was quantified through the tubulin signal.
Therefore the possibility of inhibiting Nuakl, in cellulo, was evaluated through the stabilization of the Large Antigen Tumour Suppressor LATS1.
as §2

HeLa cells = test: Cell viability / antiproliferative assay; type: cell-based; settings: HeLa cells, average of three independent experiments, concentration that induced 50% death, read-out: IC50 (in nM), antiproliferative assay
Text: Antiproliferative assays with HeLa cells have been performed with the preferred compounds and compared to the C1 and C2. The average of three independent experiments is shown. IC50 obtained with C1 and C2 were previously reported in Hoang et al, 2009, and are indicated for comparison. The lateral chain of each molecule is recalled, knowing that all the molecules have an oxo group at position 11. IC50 are indicated, i.e. the concentration that induced 50% death.
H358, H322 (lung cancer cells), U373 (glioblastomes) and HeLa ([…]) were grown in DMEM (1.5 g/L glucose) whereas HL60 (human myeloid cell line) cells were in RPMI 1640. U2OS (a human osteosarcoma cell line) cells were cultured in McCoy's Medium 5 A and liver cells (SK Hep 1) in DMEM (4 g/L glucose, (Gibco-Invitrogen). Media (Gibco-Invitrogen), were supplemented with 10% heat-inactivated foetal bovine serum (Gibco-Invitrogen), L-glutamine (2 mM), penicillin (100 UI/ml) and streptomycin (100 μg/ml).
Cell proliferation assays were conducted in 96 well culture plates. Assays were run in triplicate. Cell viability was estimated upon 72 h of treatment with varying concentrations of compound by addition of CellTiter 96Queous one Solution Reagent (Promega) directly to culture wells under conditions defined by the manufacturer.

NUAK1 [2] = target: T1, NUAK1; test: In vitro IC50 on recombinant kinase; type: biochemical
Method: The efficiency of the 3-amino-ethoxy compounds to inhibit Nuak1 was determined in vitro.
The profiling was performed at the MRC (Dundee University), in duplicate, on a set of 121 kinases. The panel is representative of the major different classes of kinases. Compounds were used at the concentration of 1 μM. In vitro, IC50 were determined on recombinant kinases by Reaction biology Corp (USA).

Chain of Aurora B (Q96GD4 whole entry): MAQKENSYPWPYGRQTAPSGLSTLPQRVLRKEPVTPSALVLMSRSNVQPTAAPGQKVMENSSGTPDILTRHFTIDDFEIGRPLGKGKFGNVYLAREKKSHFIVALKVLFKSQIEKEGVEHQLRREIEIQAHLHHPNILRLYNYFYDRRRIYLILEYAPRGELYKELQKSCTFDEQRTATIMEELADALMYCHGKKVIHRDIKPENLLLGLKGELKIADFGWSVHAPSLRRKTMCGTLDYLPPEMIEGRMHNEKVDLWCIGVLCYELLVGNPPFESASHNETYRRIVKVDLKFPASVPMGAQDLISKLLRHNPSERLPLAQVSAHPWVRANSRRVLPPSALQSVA

| SMILES | Aurora B inhibition (Aurora B) | further results |
| --- | --- | --- |
| Cc1c[nH]c(=O)c2c1[nH]c1ccc3cc(OCCN(C)C)ccc3c12 [Compound C14M, 3-(2-N,N-Dimethylaminoethoxy)-8-methyl-7H,10H-benzo[e]pyrido(4,3-b)indol-11-one] |  | LATS1 protein level (in words) (NUAK1 [1]): large increase; Aurora B kinase inhibition of maleate salts (in words) (Aurora B): maintained; IC50 (HeLa cells): 114 ± 82 nM |
| COCCOc1ccc2c(ccc3[nH]c4c(C)c[nH]c(=O)c4c32)c1 [Compound C711, 3-(2-Methoxyethoxy)-8-methyl-7H,10H-benzo[e]pyrido(4,3-b)indol-11-one] | − |  |
| Cc1c[nH]c(=O)c2c1[nH]c1ccc3cc(OCCN4CCOCC4)ccc3c12 [Compound C07M, 3-(2-(Morpholin-4-yl)ethoxy)-8-methyl-7H,10H-benzo[e]pyrido(4,3-b)indol-11-one] |  | Aurora B kinase inhibition of maleate salts (in words) (Aurora B): maintained; IC50 (HeLa cells): 287 ± 32 nM |
| CCc1c[nH]c(=O)c2c1[nH]c1ccc3cc(OCCN(C)C)ccc3c12 [Compound C48, 3-(2-N,N-dimethylaminoethoxy)-8-ethyl-7H,11H-benzo[e]pyrido(4,3-b)indol-11-one] | +++ | IC50 (NUAK1 [2]): 5.7 nM; IC50 (HeLa cells; Homo sapiens, HeLa): 53 ± 3 nM |
| COc1ccc2c(c1)CCc1[nH]c3c(C)c[nH]c(=O)c3c1-2 [Compound C11, reference compound] | − |  |
| CCc1c[nH]c(=O)c2c1[nH]c1ccc3cc(OCCN(C)C)ccc3c12 [Compound C48M, 3-(2-N,N-dimethylaminoethoxy)-8-ethyl-7H,11H-benzo[e]pyrido(4,3-b)indol-11-one] |  | Aurora B kinase inhibition of maleate salts (in words) (Aurora B): maintained; IC50 (HeLa cells): 63 ± 17 nM |
| Cc1cncc2c1[nH]c1ccc3cc(OCCCN(C)C)ccc3c12 [Compound C23, 3-(3-N,N-dimethylaminopropoxy)-8-methyl-7H-benzo[e]pyrido(4,3-b)indole] | − |  |

Continued, in another order:

| Aurora B inhibition (Aurora B) | SMILES | further results |
| --- | --- | --- |
| − | COc1ncc(C)c2[nH]c3ccc4cc(OCCN(C)C)ccc4c3c12 [Compound C12, 11-Methoxy-3-(2-N,N-dimethylaminoethoxy)-8-methyl-7H-benzo[e]pyrido(4,3-b)indole] |  |
| +++ | Cc1c[nH]c(=O)c2c1[nH]c1ccc3cc(OCCN4CCCCC4)ccc3c12 [Compound C710, 3-(2-(Piperidin-1-yl)ethoxy)-8-methyl-7H,10H-benzo[e]pyrido(4,3-b)indol-11-one] |  |
| − | COCCOc1ccc2c(ccc3[nH]c4c(C)cnc(Cl)c4c32)c1 [Compound C708, 11-Chloro-3-(2-methoxyethoxy)-8-methyl-7H-benzo[e]pyrido(4,3-b)indole] |  |
| − | Cc1cnc(Cl)c2c1[nH]c1ccc3cc(OCCN4CCCCC4)ccc3c12 [Compound C709, 11-Chloro-3-(2-(piperidin-1-yl)ethoxy)-8-methyl-7H-benzo[e]pyrido(4,3-b)indole] |  |
| − | Cc1cnc(Cl)c2c1[nH]c1ccc3cc(OCCN4CCOCC4)ccc3c12 [Compound C05, 11-Chloro-3-(2-(morpholin-4-yl)ethoxy)-8-methyl-7H-benzo[e]pyrido(4,3-b)indole] |  |
| − | CCc1cnc(Cl)c2c1[nH]c1ccc3cc(OCCN(C)C)ccc3c12 [Compound C40, 11-Chloro-3-(2-N,N-dimethylaminoethoxy)-8-ethyl-7H-benzo[e]pyrido(4,3-b)indole] |  |
| +++ | Cc1c[nH]c(=O)c2c1[nH]c1ccc3cc(OCCN4CCOCC4)ccc3c12 [Compound C07, 3-(2-(Morpholin-4-yl)ethoxy)-8-methyl-7H,10H-benzo[e]pyrido(4,3-b)indol-11-one] | IC50 (NUAK1 [2]): 1.6 nM; IC50 (HeLa cells): 107 ± 12 nM |
